What was measured:
hENPP2 = hENPP2 (Homo sapiens, UniProt Q13822); experiment: Human ENPP2 (hENPP2) biochemical assay using LPC as substrate; conditions: 150 µM LPC (palmitoyl 16:0), 37°C for 30 min
In short: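 IC50 came from compound series (top 50 µM, 1/3 steps) incubated 30 min at 37°C with 1 or 3 µg/mL final enzyme and palmitoyl LPC added at 150 µM, pH 8.5 Tris buffer with Ca2+. Choline output measured as quinoneimine dye at 555 nm via coupled oxidase/HRP/TOOS detection.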

C57BL/6 mice = experiment: Bleomycin (BLM) induced pulmonary fibrosis model; format: in vivo; conditions: both doses (10 mg/kg and 30 mg/kg, b.i.d. p.o., Day 7 to Day 21); vs. BLM/vehicle control, *p<0.05, Mann-Whitney
Text: The murine bleomycin induced pulmonary fibrosis model is a widely used standard animal model of pulmonary fibrosis (Walters & Kleeberger 2001). Bleomycin administration results in oxidative stress and acute inflammation with the subsequent onset of pulmonary fibrosis. Epithelial cell injury with reactive hyperplasia, basement membrane damage, clusters of spindle-shaped mesenchymal cells resembling fibroblastic foci, and interstitial as well as intra-alveolar fibrosis are histological characteristics of the bleomycin model similar to those of IPF.
For the purpose of the induction of pulmonary fibrosis 8 weeks old C57BL/6 mice with an average weight of ∼25 g randomly grouped in experimental groups were used. […]
Body weight and clinical signs were monitored throughout the experiment.
The main read-outs in the model were: • Blood for PK analysis • Body weight • Lung weight • Histopathological examination of lung tissue • Ashcroft score on slides stained for collagen with Crossman's trichrome, as well as evaluation of collagen deposition using digital image analysis (CaloPix software, TRIBVN Healthcare, France) on collagen-1A1 stained slides (immunohistochemistry, IHC) (Ashcroft et al. 1988; Hübner et al. 2008; Matsuse et al. 1999). […]

Sprague-Dawley rats = experiment: Rat pain model (partial sciatic nerve injury, von Frey and plantar tests); format: in vivo; conditions: 10 mg/kg p.o. bid
Procedure: The neuropathic pain rat model originally established by Seltzer et al. (Seltzer et al. 1990) is used to evaluate the effect of a test compound against tactile allodynia and contingent thermal hyperalgesia caused by partial sciatic nerve injury (PSNL) induced by sciatic nerve partial ligature.
The test compounds are administered to the treatment groups on a daily basis, starting from post-surgical day 3 (D3), and continued until the end point day on D15.
Gabapentin is used as a positive control. […]
On the test days, pre-dose allodynia was evaluated prior to dosings, and the effects of the administered compounds assessed 2 hours post dosing. […]
In the manual test approach (10 g vF), a pre-calibrated 10 g von Frey hair was used to exert five repeats of filament presentations. […] The results were recorded as percentages of positive reactions within five repeats of filament presentations. […] The actual force application was monitored in real time to ensure its linearity and thus the proper performance of the test in each measurement. The peak force (g), i.e. the lowest force evoking paw withdrawal was recorded, and the absolute paw withdrawal thresholds (PWTs) calculated as medians of triplicate measurements. […]
The contingency of heat hyperalgesia due to PSNL injury was assessed on the test days 2 hours post dosing. […]

`Cc1cc(C)cc(Nc2ncc3c(n2)CN([C@@H]2CCN(C(=O)c4cc5nn[nH]c5cc4F)[C@H](C)C2)C3)c1` [Cpd 115, [(2R,4R)-4-[2-(3,5-dimethylanilino)-5,7-dihydropyrrolo[3,4-d]pyrimidin-6-yl]-2-methyl-1-piperidyl]-(6-fluoro-1H-benzotriazol-5-yl)methanone] was tested, and the IC50 (hENPP2) was 0.01 to 100 nM, the Ashcroft score (C57BL/6 mice) was “significantly decrease” and the allodynia (Sprague-Dawley rats) was “statistically significant reduction”. The heat hyperalgesia (Sprague-Dawley rats; plantar test) was “statistically significant reduction”.

Source: EP3782997A1, “FUSED PYRIMIDINE COMPOUNDS AND PHARMACEUTICAL COMPOSITIONS THEREOF FOR THE TREATMENT OF FIBROTIC DISEASES” (Galapagos N.V., priority 2019, dated 2021)
